From ChEMBL document CHEMBL5465560, “Selectivity Literature for EUbOPEN Chemogenomic Library” (2024)

Tests used:
[1] = target: T1, Ephrin type-B receptor 2 (Homo sapiens) (UniProt P29323); experiment: Selectivity interaction (KinomeScan (DiscoverX)) EUB0000229b EPHB2; settings: at 10 µM
T1 sequence (whole entry): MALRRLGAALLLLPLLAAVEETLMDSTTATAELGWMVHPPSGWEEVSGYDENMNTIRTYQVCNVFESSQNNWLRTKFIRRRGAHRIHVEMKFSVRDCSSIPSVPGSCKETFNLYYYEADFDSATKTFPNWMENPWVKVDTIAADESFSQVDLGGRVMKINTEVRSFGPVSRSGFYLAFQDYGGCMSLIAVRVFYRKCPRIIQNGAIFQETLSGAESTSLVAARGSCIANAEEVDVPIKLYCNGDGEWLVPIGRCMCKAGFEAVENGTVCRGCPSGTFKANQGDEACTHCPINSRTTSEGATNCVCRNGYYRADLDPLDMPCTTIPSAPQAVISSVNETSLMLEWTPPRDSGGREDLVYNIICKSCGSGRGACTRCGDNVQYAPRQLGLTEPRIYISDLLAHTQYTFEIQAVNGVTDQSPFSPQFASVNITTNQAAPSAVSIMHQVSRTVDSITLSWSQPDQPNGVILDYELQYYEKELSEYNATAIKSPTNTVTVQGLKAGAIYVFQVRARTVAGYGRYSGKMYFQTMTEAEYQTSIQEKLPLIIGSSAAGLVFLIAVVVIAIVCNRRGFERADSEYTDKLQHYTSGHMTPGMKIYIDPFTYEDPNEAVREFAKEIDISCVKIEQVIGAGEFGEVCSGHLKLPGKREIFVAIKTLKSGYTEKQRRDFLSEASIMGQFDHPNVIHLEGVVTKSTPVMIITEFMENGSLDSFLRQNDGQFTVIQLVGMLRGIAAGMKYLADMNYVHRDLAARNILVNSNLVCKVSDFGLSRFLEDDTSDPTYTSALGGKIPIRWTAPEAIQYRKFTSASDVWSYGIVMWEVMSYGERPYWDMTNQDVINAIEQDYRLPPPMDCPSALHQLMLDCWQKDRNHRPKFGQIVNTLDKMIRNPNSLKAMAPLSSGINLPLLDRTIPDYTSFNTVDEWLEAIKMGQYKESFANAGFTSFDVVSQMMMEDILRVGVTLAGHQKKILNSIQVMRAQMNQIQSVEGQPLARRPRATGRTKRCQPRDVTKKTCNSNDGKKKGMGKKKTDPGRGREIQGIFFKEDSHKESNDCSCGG

[2] = target: Mitogen-activated protein kinase kinase kinase 11 (Homo sapiens) (UniProt Q16584); experiment: Selectivity interaction (Kinase panel (KiNativ target engagement assay in Jurkat cells)) EUB0001635a MAP3K11; format: cell-based; settings: Selectivity number of off-targets 0.0, Selectivity number of targets 233.0, Source Knowledge https://www.sciencedirect.com/science/article/pii/S2451945619300674?via%3Dihub, at 1 µM
[3] = target: Macrophage colony-stimulating factor 1 receptor (Homo sapiens) (UniProt P07333); experiment: Selectivity interaction (KinomeScan (DiscoverX)) EUB0000699a CSF1R; settings: at 10 µM
[4] = target: T2, Interleukin-1 receptor-associated kinase 3 (Homo sapiens) (UniProt Q9Y616); experiment: Selectivity interaction (ActivX KiNativ screen (kinase selectivity in THP-1 cell lysates)) EUB0000639a IRAK3; format: subcellular; settings: lysate
T2 sequence (whole entry): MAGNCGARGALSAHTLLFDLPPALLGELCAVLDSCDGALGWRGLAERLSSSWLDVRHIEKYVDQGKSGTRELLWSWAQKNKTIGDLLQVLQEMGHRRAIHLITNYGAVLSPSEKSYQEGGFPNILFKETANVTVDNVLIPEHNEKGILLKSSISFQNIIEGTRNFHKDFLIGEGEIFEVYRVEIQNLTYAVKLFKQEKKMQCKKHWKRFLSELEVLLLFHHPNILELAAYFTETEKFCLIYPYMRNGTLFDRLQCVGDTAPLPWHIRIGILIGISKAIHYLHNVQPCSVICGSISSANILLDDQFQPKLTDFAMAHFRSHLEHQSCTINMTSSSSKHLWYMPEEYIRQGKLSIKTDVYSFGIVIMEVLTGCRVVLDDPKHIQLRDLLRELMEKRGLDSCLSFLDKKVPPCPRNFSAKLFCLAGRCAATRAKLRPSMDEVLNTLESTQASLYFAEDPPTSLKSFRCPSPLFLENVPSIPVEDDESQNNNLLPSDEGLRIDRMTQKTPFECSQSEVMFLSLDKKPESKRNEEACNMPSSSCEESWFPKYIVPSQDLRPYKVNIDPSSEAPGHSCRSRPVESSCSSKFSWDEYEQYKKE

[5] = target: eIF-2-alpha kinase GCN2 (Homo sapiens) (UniProt Q9P2K8); experiment: Selectivity interaction (ActivX KiNativ screen (kinase selectivity in THP-1 cell lysates)) EUB0000639a EIF2AK4; format: subcellular; settings: lysate, at 1 µM
[6] = target: Cyclin-dependent kinase 4/cyclin D1 (Homo sapiens) (UniProt P11802+P24385); experiment: (§1) Selectivity interaction (Ambit KINOMEscan and KiNATiv profiling in Jurkat cells) EUB0000090b CDK4; format: cell-based; settings: at 1 µM
[7] = target: CDK4/Cyclin D3 (Homo sapiens) (UniProt P11802+P30281); experiment: as §1; format: cell-based; settings: at 1 µM
[8] = tested on: Proto-oncogene tyrosine-protein kinase receptor Ret (Homo sapiens), P07949 [M918T]; experiment: (§2) Selectivity interaction (KinomeScan (DiscoverX)) EUB0000045b RET
[9] = target: Proto-oncogene tyrosine-protein kinase receptor Ret (Homo sapiens, UniProt P07949); experiment: as §2
[10] = tested on: Proto-oncogene tyrosine-protein kinase receptor Ret (Homo sapiens), P07949 [V804M]; experiment: as §2
[11] = tested on: Proto-oncogene tyrosine-protein kinase receptor Ret (Homo sapiens), P07949 [V804L]; experiment: as §2
[12] = target: Phosphatidylinositol 4,5-bisphosphate 3-kinase catalytic subunit beta isoform (Homo sapiens) (UniProt P42338); experiment: Selectivity interaction (ActivX KiNativ screen (ex vivo kinase selectivity in human PBMCs)) EUB0001619a PIK3CB; format: cell-based; settings: PBMC, at 1 µM
[13] = target: Vasopressin V1a receptor (Homo sapiens) (UniProt P37288); experiment: Selectivity interaction (Panel of kinases, GPCRs, ion channels and transporters (enzymatic assay)) EUB0000266bCl AVPR1A

Proto-oncogene tyrosine-protein kinase receptor Ret, sequence (P07949 whole entry): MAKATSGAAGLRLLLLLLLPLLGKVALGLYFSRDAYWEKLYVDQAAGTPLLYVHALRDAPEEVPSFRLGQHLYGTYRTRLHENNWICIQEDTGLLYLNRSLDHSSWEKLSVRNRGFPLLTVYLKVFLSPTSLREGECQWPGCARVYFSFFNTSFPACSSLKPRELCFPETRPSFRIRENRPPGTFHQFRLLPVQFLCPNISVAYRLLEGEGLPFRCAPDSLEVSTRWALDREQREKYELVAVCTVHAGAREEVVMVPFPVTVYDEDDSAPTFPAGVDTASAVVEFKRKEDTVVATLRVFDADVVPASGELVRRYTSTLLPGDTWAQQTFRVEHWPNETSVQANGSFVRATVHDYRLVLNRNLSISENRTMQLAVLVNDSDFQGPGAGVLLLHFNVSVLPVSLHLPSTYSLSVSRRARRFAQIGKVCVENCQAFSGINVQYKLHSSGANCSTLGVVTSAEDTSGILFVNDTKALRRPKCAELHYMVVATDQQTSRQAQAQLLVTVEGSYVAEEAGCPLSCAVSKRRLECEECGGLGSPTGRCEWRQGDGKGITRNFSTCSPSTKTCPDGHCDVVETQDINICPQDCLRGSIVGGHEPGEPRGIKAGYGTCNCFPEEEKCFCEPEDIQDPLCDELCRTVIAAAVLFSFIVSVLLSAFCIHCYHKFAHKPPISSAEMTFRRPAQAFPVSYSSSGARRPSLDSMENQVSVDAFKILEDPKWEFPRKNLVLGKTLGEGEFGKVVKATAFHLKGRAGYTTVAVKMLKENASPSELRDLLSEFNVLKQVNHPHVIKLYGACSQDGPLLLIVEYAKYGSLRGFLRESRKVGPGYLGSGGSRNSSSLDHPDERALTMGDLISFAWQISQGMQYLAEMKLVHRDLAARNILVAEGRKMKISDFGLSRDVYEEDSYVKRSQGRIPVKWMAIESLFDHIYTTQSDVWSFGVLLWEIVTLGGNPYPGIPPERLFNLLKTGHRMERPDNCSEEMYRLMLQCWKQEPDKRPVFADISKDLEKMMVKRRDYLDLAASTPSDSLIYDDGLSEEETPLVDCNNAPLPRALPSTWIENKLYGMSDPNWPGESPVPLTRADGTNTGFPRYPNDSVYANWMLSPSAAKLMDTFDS
Proto-oncogene tyrosine-protein kinase receptor Ret (Homo sapiens), P07949 [V804L], sequence (P07949 whole entry V804L, canonical isoform): as the sequence (P07949 whole entry) above, with V804L counted along it
Proto-oncogene tyrosine-protein kinase receptor Ret (Homo sapiens), P07949 [V804M], sequence (P07949 whole entry V804M): as the sequence (P07949 whole entry) above, with V804M counted along it
Proto-oncogene tyrosine-protein kinase receptor Ret (Homo sapiens), P07949 [M918T], sequence (P07949 whole entry M918T): as the sequence (P07949 whole entry) above, with M918T counted along it
eIF-2-alpha kinase GCN2 (Homo sapiens), sequence (Q9P2K8 whole entry): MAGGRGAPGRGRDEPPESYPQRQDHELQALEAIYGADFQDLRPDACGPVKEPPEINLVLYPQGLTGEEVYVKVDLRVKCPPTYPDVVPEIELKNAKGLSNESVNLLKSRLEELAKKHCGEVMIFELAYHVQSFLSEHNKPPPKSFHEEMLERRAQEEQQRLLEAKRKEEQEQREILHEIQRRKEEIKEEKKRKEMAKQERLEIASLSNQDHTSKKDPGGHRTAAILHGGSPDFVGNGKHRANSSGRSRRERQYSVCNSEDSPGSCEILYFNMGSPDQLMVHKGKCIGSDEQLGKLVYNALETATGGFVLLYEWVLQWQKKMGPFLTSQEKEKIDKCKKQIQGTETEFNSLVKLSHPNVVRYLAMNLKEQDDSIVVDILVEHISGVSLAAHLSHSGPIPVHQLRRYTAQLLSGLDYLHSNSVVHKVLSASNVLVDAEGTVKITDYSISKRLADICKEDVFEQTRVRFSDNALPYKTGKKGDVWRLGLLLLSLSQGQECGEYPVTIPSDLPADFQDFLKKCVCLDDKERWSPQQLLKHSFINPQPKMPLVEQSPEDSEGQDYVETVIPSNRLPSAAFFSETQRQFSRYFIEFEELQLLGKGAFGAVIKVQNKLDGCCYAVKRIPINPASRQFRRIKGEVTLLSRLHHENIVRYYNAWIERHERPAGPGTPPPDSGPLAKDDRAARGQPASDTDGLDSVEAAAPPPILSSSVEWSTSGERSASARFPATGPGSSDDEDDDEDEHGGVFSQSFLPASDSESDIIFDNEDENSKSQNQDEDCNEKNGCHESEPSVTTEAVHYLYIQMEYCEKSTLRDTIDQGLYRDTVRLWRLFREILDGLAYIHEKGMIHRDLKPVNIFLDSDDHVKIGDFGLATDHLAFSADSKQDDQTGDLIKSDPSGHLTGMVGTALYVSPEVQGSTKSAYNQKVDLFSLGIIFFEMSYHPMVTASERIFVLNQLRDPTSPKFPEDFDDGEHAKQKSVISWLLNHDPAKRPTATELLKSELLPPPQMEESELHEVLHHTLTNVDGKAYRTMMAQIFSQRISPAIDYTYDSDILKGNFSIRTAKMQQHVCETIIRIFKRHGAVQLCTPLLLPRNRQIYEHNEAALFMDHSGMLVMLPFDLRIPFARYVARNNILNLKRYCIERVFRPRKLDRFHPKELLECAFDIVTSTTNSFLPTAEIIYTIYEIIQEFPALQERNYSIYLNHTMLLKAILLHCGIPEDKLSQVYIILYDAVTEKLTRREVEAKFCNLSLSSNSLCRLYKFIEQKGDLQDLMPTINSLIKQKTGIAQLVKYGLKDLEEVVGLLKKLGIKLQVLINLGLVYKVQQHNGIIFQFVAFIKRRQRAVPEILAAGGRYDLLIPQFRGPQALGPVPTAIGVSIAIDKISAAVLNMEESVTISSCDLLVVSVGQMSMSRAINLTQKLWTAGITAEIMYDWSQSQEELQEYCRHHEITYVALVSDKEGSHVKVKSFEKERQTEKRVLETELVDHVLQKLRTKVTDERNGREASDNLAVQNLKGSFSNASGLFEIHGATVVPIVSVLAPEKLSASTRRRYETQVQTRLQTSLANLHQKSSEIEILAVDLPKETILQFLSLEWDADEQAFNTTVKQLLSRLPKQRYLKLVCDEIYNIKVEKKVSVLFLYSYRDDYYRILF
Phosphatidylinositol 4,5-bisphosphate 3-kinase catalytic subunit beta isoform (Homo sapiens), sequence (P42338 whole entry, looked up, canonical isoform): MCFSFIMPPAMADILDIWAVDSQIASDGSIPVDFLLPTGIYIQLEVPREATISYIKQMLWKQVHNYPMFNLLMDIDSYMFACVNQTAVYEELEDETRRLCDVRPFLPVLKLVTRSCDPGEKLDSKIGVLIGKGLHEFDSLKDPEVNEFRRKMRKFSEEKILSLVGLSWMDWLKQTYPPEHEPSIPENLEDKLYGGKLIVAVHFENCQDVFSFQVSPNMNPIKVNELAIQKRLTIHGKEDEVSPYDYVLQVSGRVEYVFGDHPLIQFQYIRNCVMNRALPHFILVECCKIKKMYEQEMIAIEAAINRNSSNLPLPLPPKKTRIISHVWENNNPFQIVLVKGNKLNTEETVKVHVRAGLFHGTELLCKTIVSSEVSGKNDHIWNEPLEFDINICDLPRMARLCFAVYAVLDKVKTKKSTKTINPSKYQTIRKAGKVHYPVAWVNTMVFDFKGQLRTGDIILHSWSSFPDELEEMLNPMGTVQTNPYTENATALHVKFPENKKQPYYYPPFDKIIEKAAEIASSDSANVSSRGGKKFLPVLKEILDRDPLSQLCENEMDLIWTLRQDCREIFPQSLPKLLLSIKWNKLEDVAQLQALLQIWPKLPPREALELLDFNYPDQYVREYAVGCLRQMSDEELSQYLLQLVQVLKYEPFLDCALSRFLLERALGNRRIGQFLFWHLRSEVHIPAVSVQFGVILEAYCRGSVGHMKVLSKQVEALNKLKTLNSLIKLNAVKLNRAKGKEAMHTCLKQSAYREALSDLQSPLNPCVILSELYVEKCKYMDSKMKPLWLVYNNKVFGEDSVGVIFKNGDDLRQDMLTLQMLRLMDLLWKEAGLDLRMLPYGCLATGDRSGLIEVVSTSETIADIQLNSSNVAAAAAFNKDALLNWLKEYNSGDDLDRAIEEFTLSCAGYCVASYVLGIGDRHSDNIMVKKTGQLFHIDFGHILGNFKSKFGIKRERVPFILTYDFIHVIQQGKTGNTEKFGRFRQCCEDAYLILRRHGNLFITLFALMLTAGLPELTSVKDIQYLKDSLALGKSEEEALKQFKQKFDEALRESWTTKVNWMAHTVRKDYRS
Mitogen-activated protein kinase kinase kinase 11 (Homo sapiens), sequence (Q16584 whole entry, looked up): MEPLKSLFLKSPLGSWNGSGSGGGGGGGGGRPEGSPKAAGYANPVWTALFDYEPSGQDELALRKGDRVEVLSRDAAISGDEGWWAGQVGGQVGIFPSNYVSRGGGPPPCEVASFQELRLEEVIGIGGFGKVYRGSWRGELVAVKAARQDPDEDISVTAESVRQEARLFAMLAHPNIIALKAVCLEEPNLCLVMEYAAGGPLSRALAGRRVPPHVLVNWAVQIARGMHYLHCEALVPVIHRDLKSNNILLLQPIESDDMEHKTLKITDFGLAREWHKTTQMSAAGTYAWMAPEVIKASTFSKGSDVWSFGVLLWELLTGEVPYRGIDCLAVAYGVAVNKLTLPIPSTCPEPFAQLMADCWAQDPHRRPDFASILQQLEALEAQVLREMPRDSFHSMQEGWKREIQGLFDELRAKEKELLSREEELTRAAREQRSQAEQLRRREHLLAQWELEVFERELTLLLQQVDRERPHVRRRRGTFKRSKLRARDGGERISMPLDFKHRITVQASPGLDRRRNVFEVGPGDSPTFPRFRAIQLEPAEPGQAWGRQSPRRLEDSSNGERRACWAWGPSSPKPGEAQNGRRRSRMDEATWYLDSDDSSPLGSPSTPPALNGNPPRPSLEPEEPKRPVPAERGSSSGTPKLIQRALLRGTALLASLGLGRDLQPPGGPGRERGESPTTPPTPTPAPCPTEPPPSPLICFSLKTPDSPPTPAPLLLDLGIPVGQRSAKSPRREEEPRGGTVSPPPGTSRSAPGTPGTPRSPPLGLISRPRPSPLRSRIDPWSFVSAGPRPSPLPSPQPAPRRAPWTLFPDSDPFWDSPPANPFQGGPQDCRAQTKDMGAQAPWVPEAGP

Structure (SMILES): COc1cc(N(C)c2ccnc3ccc(C(F)(F)F)cc23)cc(OC)c1OC
- % binding [1]: 93%

Structure (SMILES): C=CC(=O)Nc1ccc(C(=O)Nc2[nH]nc3c2CN(C(=O)N[C@H](CN(C)C)c2ccccc2)C3(C)C)cc1
- % of engagement [2]: -1.9%

Structure (SMILES): CCN(CC)CCCCNc1ncc2cc(-c3cc(OC)cc(OC)c3)c(NC(=O)NC(C)(C)C)nc2n1
- % of control [3]: 6.6%

Structure (SMILES): CC[C@@H]1[C@H](F)C(=O)N[C@@H]1COc1nccc2cc(C(N)=O)c(OC)cc12 [ZIMLOVISERTIB]
- % of inhibition ([4]; at 0.01 µM): -3.6%
- % of inhibition ([4]; at 0.04 µM): 31.1%
- % of inhibition ([4]; at 0.2 µM): 72.5%
- % of inhibition ([4]; at 1 µM): 89.6%
- % of inhibition ([4]; at 5 µM): > 98%
- % of inhibition [5]: 3.6%

Structure (SMILES): CN(C)C/C=C/C(=O)Nc1ccc(C(=O)N2CCCC(Nc3ncc(Cl)c(-c4c[nH]c5ccccc45)n3)C2)cc1 (stereo unspecified)
- % of control [6]: 59%
- % of control [7]: 94%

Structure (SMILES): C=CC(=O)Nc1cc(-n2c(=O)ccc3cnc4ccc(-c5ccc(NS(C)(=O)=O)cc5)cc4c32)ccc1C
- % of control ([8]; at 1 µM): 11%
- % of control ([8]; at 10 µM): 74%
- % of control ([9]; at 1 µM): 88%
- % of control ([9]; at 10 µM): 96%
- % of control ([10]; at 1 µM): 85%
- % of control ([10]; at 10 µM): 100%
- % of control ([11]; at 1 µM): 79%
- % of control ([11]; at 10 µM): 100%

Structure (SMILES): N#Cc1cccc(-c2c[nH]c3ncnc(N4CCOCC4)c23)c1
- % of inhibition [12]: -1%

Structure (SMILES): CCn1c(-c2nc3cc(C(=O)N4CCCC(N)C4)ccc3n2C)cc2ccccc21 (stereo unspecified)
- pXC50 [13]: < 4.3 M
